Peptide text beside a SMILES is read from it. * marks the point of attachment. Cbz = O=C(OCc1ccccc1)*
What was measured:
Format in all cases: cell-based, human
TCTP [1] = experiment: ASO sequences screening: TCTP expression by western blot and/or qRT-PCR; conditions: WB and/or qRT-PCR, PC-3 cells overexpressing TCTP
Experimental: (§1) Western Blot analysis was performed as described previously (Rocchi et al., 2004, Cancer Res. 64:6595-602) with 1:5000 rabbit anti-Hsp27 polyclonal antibody (Assay Designs, Villeurbanne, France), 1:2000 rabbit TCTP polyclonal antibody (Abcam Inc., Cambridge, UK), 1:250 rabbit anti-MSL1v1 polyclonal antibody (Abcam Inc.), 1:500 mouse anti-ubiquitin monoclonal antibody (Santa Cruz Biotechnology Inc., Heidelberg, Germany) or 1:1000 rabbit anti-caspase-3 polyclonal antibody (Cell Signalling Technology Inc., Danvers, USA). Loading levels were normalized using 1:5000 rabbit anti-glyceraldehyde-3-phosphate dehydrogenase polyclonal (Abcam Inc.) or 1:2500 mouse anti-vinculine monoclonal antibodies (Sigma Chemical Co., St Louis, Mo., USA).
The quantitative reverse transcription polymerase chain reaction (qRT-PCR) analysis was done on a LightCycler detection system (Roche Applied Science, Meylan, France). Expression levels of 18S subunit of the ribosome gene were used as an internal control. First strand cDNA was synthesized from 1 μg of total RNA using random hexamers and expanded by reverse transcriptase according to the manufacturer's instructions (ImProm-II Reverse Transcription System, Promega, Charbonniéres-les-Bains, France), subsequently diluted 1:10 with water, and stored at −20° C. until use. TCTP and 18S polymerase chain reaction (PCR) products were detected by quantitative real time PCR (qRT-PCR) using the SYBR Premix Ex Taq (Takara Bio Inc, St Germain en Laye, France) following the manufacturer's instructions. Five microliters of diluted cDNA template were mixed with 10 μl SYBR Premix Ex Taq (including Taq polymerase, reaction buffer, MgCl2, SYBR green I dye, and deoxynucleotide triphosphate mix) and 0.4 μM forward and reverse primers, in a final volume of 20 μl. The following primers were used: TCTP forward 5′-[…]-3′ (SEQ ID NO: 8) and TCTP reverse 5′-[…]-3′; (SEQ ID NO: 9); 18S forward 5′-[…]-3′ (SEQ ID NO: 10) and 18S reverse 5′-[…]-3′ (SEQ ID NO: 11). After an initial Taq activation for 10 seconds at 95° C., Light Cycler PCR was done using 55 cycles with the following cycling conditions: 95° C. for 5 seconds, 58° C. for 7 seconds, and 72° C. for 14 seconds. Each sample was analyzed in duplicate and the experiment was repeated three times. Results were analyzed using RealQuant data analysis software (Roche, Neuilly-sur-seine, France). The results analysis was done with the 2(-Delta Delta C(T)) Method (Livak K J. et al., 2001; Methods. 25:402-8).
In order to find a sequence ASO having an inhibiting effect on TCTP expression, 30 ASO sequences have been designed 26 of which are shown in table 1. Said 30 sequences cover the TCTP mRNA (accession number NM_003295). Using BLAST program, the specificity of said sequences has been studied. Among said 30 sequences, only 15 sequences have been identified as being specific for TCPT mRNA sequence (see table 1). The effect of said ASO sequences on TCTP expression was tested by western blot analysis (WB) and/or by quantitative reverse transcription polymerase chain reaction (qRT-PCR) on PC-3 cells overexpressing TCTP. WB and qRT-PCR were performed as exposed in example 1.

PC-3 cells = experiment: MTT cell growth assay, PC-3 cells; conditions: PC-3 cells, 50 nM docetaxel 24 h, MTT
Experimental: In brief, cells were seeded in each well of 12-well microtiter plates (30 000 to 50 000 cells per well) and allowed to attach overnight. To study the effect of TCTP downregulation on apoptosis induced by docetaxel, PC-3 cells were transiently transfected the day after seeding with 5 nM of TCTP siRNA for 48 h or 100 nM of TCTP ASO for 72 h. Cells were then treated with 50 nM of docetaxel and MTT assays were performed after 24 h. To assess the effect of TCTP downregulation on Hsp27 cytoprotection, LNCaP-Mock and -Hsp27 cells were transiently transfected the day after seeding with 5 nM of TCTP siRNA for 48 h. The down- or upregulation of TCTP effect on LNCaP and C4-2 cell viability was realized after transient transfections with 100 nM of TCTP ASO or 0.02 μg/μl of pDEST-TCTP for 72 h and 48 h respectively. Cells were then treated with 1 nM of docetaxel in serum-free media (mimics androgen withdrawal in vitro) and crystal violet assays were performed the day after. Each assay was performed in triplicate.
To assess the effect of TCTP down-regulation on CR cell growth, PC-3 cells were treated for 1 day with 5 nM TCTP siRNA or for 2 days with 100 nM TCTP ASO. At the end of the treatment, PC-3 cells were incubated with 50 nM of docetaxel. Growth rates of PC-3 cells were examined using the 3-(4,5-dimethylthiazol-2-yl)-2,5-diphenyltetrazolium bromide assay. […] The effect of the inhibition of TCTP on cell survival was analyzed in PC-3 after combined ASO and docetaxel-chemotherapy treatment. After 24 h of treatment with 50 nM of docetaxel, cell viability was determined using a MTT assay. The experiment was repeated in triplicate. *** differs from PC-3 transfected with control-siRNA (P50.001) using Statview software. […] The same effect has been observed with TCTP siRNA (SEQ ID NO: 3) and 5′-[…]-3′ (SEQ ID NO: 14) and 5′-[…]-3′ (SEQ ID NO: 15) ASOs.
PC3 cells were transfected with a TCTP siRNA of SEQ ID NO: 3. Cell proliferation and apoptosis were studied using respectively MTT (3-(4,5-dimethylthiazol-2-yl)-2,5-diphenyl tetrazolium bromure) assay and flow cytometry.
PC3 cells were transfected with a TCTP ASO of SEQ ID NO: 2. Cell proliferation and apoptosis were studied using respectively MTT assay and flow cytometry.

TCTP [2] = experiment: TCTP level in LNCaP cells after Hsp27 down-regulation by OGX-427 (western blot, mRNA)
Experimental: as §1
2′-O-(2-rnethoxyethyl) ASO, OGX-427, was obtained from OncoGenex. The sequence of OGX-427 corresponds to the human Hsp27 translation initiation site (5′-GGGACGCGG-CGCTCGGTCAT-3′) (SEQ ID NO: 12). A mismatch ASO (ASO; 5′-[…]-3′) (SEQ ID NO: 13) was used as a control. The TCTP phosphorithioate ASO targeting the human TCTP (5′-[…]-3′) (SEQ ID NO: 2) and the control oligonucleotide (5′-CGTGTAGGTACGGCAGATC-3′) (SEQ ID NO: 4) were purchased from Operon (Eurofin MWG, Courtaboeuf, France) and designated ASO TCTP or ASO scrambled. […]

TCTP [3] = experiment: TCTP half-life / proteasomal degradation in PC-3 cells (western blot); conditions: for TCTP protein levels decrease: PC-3 cells, cycloheximide alone 20 μg/ml
Experimental: Cells were plated at a density of 25,000 (PC-3) and 75 000 (LNCaP and C4-2) by 1.9 cm^2 and treated the day after with indicated siRNA or ASO for 1 or 2 days respectively. Oligofectamine, a cationic lipid (Invitrogen), was used to increase siRNA or ASO uptake into the cells. Cells were treated with indicated siRNA or ASO concentrations after a preincubation for 20 min with […] of oligofectamine in serum free OPTI-MEM (Invitrogen). Four hours later, 1 ml of FCS was added in the medium. […]
To determine whether the ubiquitination of TCTP results in its proteasomal degradation, TCTP half-life was determined after OGX-427 treatment, in the presence or absence of the proteasome inhibitor MG132 and protein synthesis inhibitor cycloheximide after 2 days.

Compound	ability to inhibit TCTP expression (TCTP [1])	best ability to inhibit specifically TCTP expression (TCTP [1])	enhancement of docetaxel sensitivity (PC-3 cells)	other results
5′-AACTTGTTTCCTGCAGGTGA-3′ (all phosphorothioate, sugars by position and methylation of C not given here) [ASO15]	strong ability to inhibit TCTP expression	best ability to inhibit specifically TCTP expression	same effect	–
5′-GGGACGCGG-CGCTCGGTCAT-3′ (antisense GGGACGCGGCGCTCGGTCAT; 2'-O-(2-methoxyethyl) modified ASO, pattern not given here) [OGX-427, 2′-O-(2-methoxyethyl) ASO from OncoGenex corresponding to the human Hsp27 translation initiation site]	–	–	–	TCTP mRNA expression level (TCTP [2]; LNCaP cells treated by OGX-427): without any change; TCTP protein level lower than OGX-427-control (TCTP [2]; LNCaP cells, western blot): 70%
5′-TGGTTCATGACAATATCGAC-3′ (all phosphorothioate, sugars by position and methylation of C not given here) [ASO14]	strong ability to inhibit TCTP expression	best ability to inhibit specifically TCTP expression	same effect	–
CC(C)C[C@@H](C=O)NC(=O)[C@H](CC(C)C)NC(=O)[C@H](CC(C)C)NC(=O)OCc1ccccc1 [MG132] (Cbz-Leu-Leu-Leu-aldehyde)	–	–	–	TCTP half-life (TCTP [3]; PC-3 cells after OGX-427 treatment, MG132 10 μmol/L): prolonged the half-life of TCTP
C[C@@H]1C[C@@H]([C@H](O)CC2CC(=O)NC(=O)C2)C(=O)[C@@H](C)C1 [cycloheximide]	–	–	–	TCTP protein levels decrease (TCTP [3]; 24 h): 40%; TCTP protein levels decrease (TCTP [3]; 48 h): 60%
